From patent US6063780A, “Method of treating a tumor” (priority 1998, dated 2000)
Like-named read-outs stand apart in the source and are kept apart here.

Key:
MV-522 Human Lung Tumor [1] = test: Carboplatin, Paclitaxel and Tirapazamine vs MV-522 Human Lung Tumor Xenograft (confirming study, Example 3); conditions: for Final Tumor Wt. (Mean ± SEM) / Weight Change (Day 6): n=8; for Mean % Tumor Shrinkage: mice with partial shrinkage; for antitumor efficacy (in words): carboplatin experiment / general statement
Method: (§1) Nude mice weighing approximately 20 g were implanted s.c. by trocar with fragments of MV-522 human lung carcinomas harvested from s.c. growing tumors in nude mice hosts. When tumors were approximately 5 mm×5 mm in size (usually ten days after inoculation), the animals were pair-matched into treatment and control groups. Each group contained 8 tumored mice, each of which was ear-tagged and followed individually throughout the experiment. Tirapazamine was administered three hours prior to oxaliplatin, carboplatin and paclitaxel. The route and schedule for all drugs was i.p., qdxl.
(§2) Mice were weighed twice weekly, and tumor measurements were taken by calipers twice weekly, starting on Day 1. These tumor measurements were converted to mg tumor weight by a well-known formula, L×W^2 /2. The experiment was terminated when control tumors reached a size of 1 gram. Upon termination, all mice were weighed, sacrificed, and their tumors excised. Tumors were weighed, and the mean tumor weight per group was calculated.
(§3) With these agents, the final weight of a given tumor was subtracted from its own weight at the start of treatment on Day 1. This difference divided by the initial tumor weight is the % shrinkage. A mean % tumor shrinkage can be calculated from data from the mice in a group that experienced tumor regressions. If the MV-522 tumor completely disappeared in a mouse, this was considered a complete regression or complete tumor shrinkage.
Paclitaxel and tirapazamine were administered i.p. as a single bolus at doses of 20 mg/kg (2/3 MTD) and 70 mg/kg (MTD) respectively. Carboplatin was given as a single i.p. bolus at doses of 100 mg/kg (MTD) or 50 mg/kg (1/2 MTD).

[2] = cited from earlier work
MV-522 Human Lung Tumor [3] = test: Oxaliplatin, Paclitaxel and Tirapazamine vs MV-522 Human Lung Tumor Xenograft (Example 4); conditions: for % Tumor Growth Inhibition (TGI) / Actual Tumor Wt. (Mean ± SEM) / Weight Change (Day 6) / # of Toxic Deaths / Mice with Complete Shrinkage / Mice with partial Tumor Shrinkage: oxaliplatin 15 mg/kg (MTD), paclitaxel 20 mg/kg, tirapazamine 70 mg/kg, i.p., qdx1; for % Tumor Growth Inhibition (TGI): in the animals without shrinkage; for Actual Tumor Wt. (Mean ± SEM) / Weight Change (Day 6): n=8; for # of Toxic Deaths / Mice with Complete Shrinkage / Mice with partial Tumor Shrinkage: number of 8 mice; for antitumor efficacy (in words): oxaliplatin experiment
Method: as §1, §2, §3
Paclitaxel and tirapazamine were given at doses of 20 mg/kg and 70 mg/kg respectively (i.p.; qd×1).

[4] = test system: FSaIIC Murine Fibrosarcoma; conditions: cited from earlier work
[5] = test system: mouse SCCVII and other tumors; conditions: multiple injections in conjunction with fractionated irradiation; cited from earlier work
[6] = carboplatin 50 mg/kg (1/2 MTD), paclitaxel 20 mg/kg, tirapazamine 70 mg/kg where combined, i.p., qdx1, in the animals without shrinkage
[7] = carboplatin 50 mg/kg (1/2 MTD), paclitaxel 20 mg/kg, tirapazamine 70 mg/kg where combined, i.p., qdx1
[8] = carboplatin 50 mg/kg (1/2 MTD), paclitaxel 20 mg/kg, tirapazamine 70 mg/kg where combined, i.p., qdx1, number of 8 mice
[9] = carboplatin 100 mg/kg (MTD), paclitaxel 20 mg/kg, tirapazamine 70 mg/kg where combined, i.p., qdx1, in the animals without shrinkage
[10] = carboplatin 100 mg/kg (MTD), paclitaxel 20 mg/kg, tirapazamine 70 mg/kg where combined, i.p., qdx1
[11] = carboplatin 100 mg/kg (MTD), paclitaxel 20 mg/kg, tirapazamine 70 mg/kg where combined, i.p., qdx1, number of 8 mice
[12] = groups without carboplatin, paclitaxel 20 mg/kg, tirapazamine 70 mg/kg, i.p., qdx1
[13] = groups without carboplatin, paclitaxel 20 mg/kg, tirapazamine 70 mg/kg, i.p., qdx1, number of 8 mice

Molecule | % Tumor Growth Inhibition (TGI) (MV-522 Human Lung Tumor [1]; [6]) [%] | Final Tumor Wt. (Mean ± SEM) (MV-522 Human Lung Tumor [1]; [7]) [mg] | Weight Change (Day 6) (MV-522 Human Lung Tumor [1]; [7]) | # of Toxic Deaths (MV-522 Human Lung Tumor [1]; [8]) | Mice with Complete Shrinkage (MV-522 Human Lung Tumor [1]; [8]) | Mice with partial Tumor Shrinkage (MV-522 Human Lung Tumor [1]; [8]) | % Tumor Growth Inhibition (TGI) (MV-522 Human Lung Tumor [1]; [9]) [%] | Final Tumor Wt. (Mean ± SEM) (MV-522 Human Lung Tumor [1]; [10]) [mg] | Weight Change (Day 6) (MV-522 Human Lung Tumor [1]; [10]) [%] | # of Toxic Deaths (MV-522 Human Lung Tumor [1]; [11]) | Mice with Complete Shrinkage (MV-522 Human Lung Tumor [1]; [11]) | Mice with partial Tumor Shrinkage (MV-522 Human Lung Tumor [1]; [11]) | antitumor efficacy (in words) (MV-522 Human Lung Tumor [1]) | Final Tumor Wt. (Mean ± SEM) (MV-522 Human Lung Tumor [1]; [12]) [mg] | % Tumor Growth Inhibition (TGI) (MV-522 Human Lung Tumor [3]) [%] | Actual Tumor Wt. (Mean ± SEM) (MV-522 Human Lung Tumor [3]) [mg] | Weight Change (Day 6) (MV-522 Human Lung Tumor [3]) | # of Toxic Deaths (MV-522 Human Lung Tumor [3]) | Mice with Complete Shrinkage (MV-522 Human Lung Tumor [3]) | Mice with partial Tumor Shrinkage (MV-522 Human Lung Tumor [3]) | also measured
Paclitaxel + Carboplatin | 49.8 | 474.0 ± 93.5 | +1.7% | 0 | 0 | 0 | 68.8 | 241.4 ± 70.3 | -1.3 | 0 | 0 | 2 | even more effective |  |  |  |  |  |  |  | Mean % Tumor Shrinkage (MV-522 Human Lung Tumor [1]; [10]): 53.0%; Mean % Tumor Shrinkage (MV-522 Human Lung Tumor [1]; carboplatin 100 mg/kg (MTD), paclitaxel 20 mg/kg, tirapazamine 70 mg/kg where combined, i.p., qdx1, listed as paclitaxel-high dose carboplatin): 53%; Mice with partial Tumor Shrinkage (MV-522 Human Lung Tumor [1]; carboplatin 100 mg/kg (MTD), paclitaxel 20 mg/kg, tirapazamine 70 mg/kg where combined, i.p., qdx1, number of 8 mice, listed as paclitaxel-high dose carboplatin): two
N.N.O=C([O-])C1(C(=O)[O-])CCC1.[Pt+2] [Carboplatin, platinum, diammine [1,1-cyclobutane-dicarboxylato(2)-0,0']-, (SP-4-2)] | 22.5 | 698.1 ± 160.5 | -1.7% | 0 | 0 | 0 | 39.7 | 556.5 ± 129.8 | -1.5 | 0 | 0 | 0 |  |  |  |  |  |  |  |  | % Tumor Growth Inhibition (TGI) (MV-522 Human Lung Tumor [1]; carboplatin 100 mg/kg (MTD), paclitaxel 20 mg/kg, tirapazamine 70 mg/kg where combined, i.p., qdx1, in the animals without shrinkage, listed as carboplatin): approximately 40%; pH of a 1% solution ([2]; 1% solution): 5-7; rate of aquation ([2]; compared with cisplatin): occurs at a slower rate than in the case of cisplatin; solubility in water ([2]; water): approximately 14 mg/mL
Nc1n[n+]([O-])c2ccccc2[n+]1[O-] [Tirapazamine, 3-amino-1,2,4-benzotriazine 1,4-dioxide] |  |  |  |  |  |  |  |  |  |  |  |  | not active as a single agent | 835.3 ± 111.2 | 2.5 | 769.1 ± 73.0 | -6.9% | 0 | 0 | 0 | % Tumor Growth Inhibition (TGI) (MV-522 Human Lung Tumor [1]; [12]): 5.7%; Weight Change (Day 6) (MV-522 Human Lung Tumor [1]; [12]): -1.7%; # of Toxic Deaths (MV-522 Human Lung Tumor [1]; [13]): 0; Mice with Complete Shrinkage (MV-522 Human Lung Tumor [1]; ip, 70 mg/kg): 0; Mice with partial Tumor Shrinkage (MV-522 Human Lung Tumor [1]; ip, 70 mg/kg): 0; antitumor efficacy (in words) (MV-522 Human Lung Tumor [3]): not active; dose enhancement / cytotoxic effect in combination ([4]; given just before single-dose cyclophosphamide, carmustine or melphalan): marked dose enhancement leading to synergistic cytotoxic effects on tumor cells; dose enhancement / cytotoxic effect in combination ([4]; given just prior to single-dose cisplatin): additive effect, except at the highest dose level of cisplatin; tumor cell kill with fractionated irradiation [5]: kills hypoxic cells, increases tumor cell kill while sparing normal tissue
CC(=O)OC1C(=O)C2(C)C(O)CC3OCC3(OC(C)=O)C2C(OC(=O)c2ccccc2)C2(O)CC(OC(=O)C(O)C(NC(=O)c3ccccc3)c3ccccc3)C(C)=C1C2(C)C [Paclitaxel, 5β,20-Epoxy-1,2α,4,7β,10β,13α-hexahydroxytax-11-en-9-one 4,10-diacetate 2-benzoate 13-ester with (2R, 3S)-N-benzoyl-3-phenylisoserine] |  |  |  |  |  |  |  |  |  |  |  |  |  | 552.9 ± 68.6 | 30.9 | 570.5 | +0.9% | 1 | 0 | 0 | Weight Change (Day 6) (MV-522 Human Lung Tumor [1]; [12]): +0.4%; # of Toxic Deaths (MV-522 Human Lung Tumor [1]; [13]): 1; Mice with Complete Shrinkage (MV-522 Human Lung Tumor [1]; [13]): 0; Mice with partial Tumor Shrinkage (MV-522 Human Lung Tumor [1]; [13]): 0; # of Toxic Deaths (MV-522 Human Lung Tumor [1]; groups without carboplatin, paclitaxel 20 mg/kg, tirapazamine 70 mg/kg, i.p., qdx1, number of 8 mice, listed as paclitaxel): one toxic death; solubility in water (in words) ([2]; water): insoluble in water
O=C1[O][Pt]2([NH][C@@H]3CCCC[C@H]3[NH]2)[O]C1=O (relative stereo) [Oxaliplatin, cis-oxalato(trans-1-1,2-cyclohexanediamine) platinum (II)] |  |  |  |  |  |  |  |  |  |  |  |  |  |  | 8.2 | 731.5 ± 62.6 | +5.2% | 0 | 0 | 0 | antitumor efficacy (in words) (MV-522 Human Lung Tumor [3]): not active
